Test results taken from publication PMC6271887, “Antiparasitic Activity of Natural and Semi-Synthetic Tirucallane Triterpenoids from Schinus terebinthifolius (Anacardiaceae): Structure/Activity Relationships” (Molecules, 2014).
Values after ≈ are worked out from the molar mass of the structure shown. Read-outs that look alike come from different tables or passages of the source.

What was measured:
[1] = test system: T. cruzi trypomastigotes (Y strain); assay: Activity against Trypanosoma cruzi trypomastigotes (MTT); type: cell-based; settings: for T. cruzi (Trypomastigotes) Experimental: class, without activity at 100 µg/mL = inactive; for SI TRY: selectivity index trypomastigotes: CC50 mammalian cells/IC50 trypomastigotes; for IC50: Trypanosoma cruzi, 37 °C, 100 to 0.78 μg/mL, NA: not active, read-out: IC50 CI95% T. cruzi Trypomastigotes
Experimental: (§1) Isolated promastigotes of L. (L.) infantum (MHOM/BR/1972/LD) were maintained in M-199 medium supplemented with 10% fetal bovine serum (FBS) and 0.25% hemin at 24 °C. L. infantum was maintained in golden hamsters up to 60–70 days post-infection. Amastigotes were harvested from spleens of infected hamsters by differential centrifugation. T. cruzi trypomastigotes (Y strain) were maintained in LLC-MK2 (ATCC CCL 7) cells using RPMI-1640 medium supplemented with 2% FBS at 37 °C 5% CO2-humidified incubator [21].
Compounds 1–3, 1a–c, 2a–d, 3a, and 3b were dissolved in DMSO and diluted in RPMI-1640 medium to determine the 50% inhibitory concentration (IC50) as described above for the antileishmanial assay. Free trypomastigotes obtained from LLC-MK2 cultures were counted in a Neubauer hemocytometer and seeded at 1 × 10^6/well in 96-well microplates. The tested compounds were incubated in a range concentration of 100 to 0.78 μg/mL for 24 h at 37 °C in a 5% CO2 humidified incubator, using benznidazole as standard drug. The viability of the trypomastigotes was verified by the MTT assay as described above.

NCTC clone 929 cells = assay: Cytotoxicity against mammalian cells (MTT); type: cell-based
Experimental: (§2) Peritoneal macrophages were collected from the peritoneal cavity of female BALB/c mice by washing with RPMI-1640 without phenol red, supplemented with 10% FBS. NCTC (clone 929) cells were maintained in RPMI-1640 (without phenol red and supplemented with 10% FBS) at 37 °C in a humidified atmosphere containing 5% CO2 [31]. The 50% cytotoxic concentration (CC50) was determined in NCTC clone 929 cells. NCTC cells were seeded at 6 × 10^4 cells/well in 96-well microplates at 37 °C in a 5% CO2. The mammalian cells were incubated with tested compounds to the highest concentration of 200 μg/mL for 48 h at 37 °C, using miltefosine as standard drug. The viability of the cells was determined by MTT assay at 570 nm. The selectivity index (SI) was determined considering the following equation: CC50 NCTC cells/IC50 parasites.

[2] = Cytotoxicity against mammalian cells (MTT); type: cell-based; settings: mouse
Experimental: as §2

[3] = test system: L. infantum intracellular amastigotes; assay: Activity against L. infantum intracellular amastigotes in peritoneal macrophages (Giemsa, microscopy); type: cell-based, Leishmania (L.) infantum; settings: for L. infantum (Amastigotes) Experimental: class, without activity at 100 µg/mL = inactive; for SI AMA: selectivity index amastigotes: CC50 mammalian cells/IC50 Leishmania amastigotes; for IC50: Leishmania infantum, Peritoneal macrophage, intracellular, peritoneal macrophages, 120 h, 100 to 0.78 μg/mL, NA: not active, read-out: IC50 CI95% L. infantum Amastigotes
Experimental: as §1
Peritoneal macrophages were collected from the peritoneal cavity of female BALB/c mice by washing with RPMI-1640 without phenol red, supplemented with 10% FBS. NCTC (clone 929) cells were maintained in RPMI-1640 (without phenol red and supplemented with 10% FBS) at 37 °C in a humidified atmosphere containing 5% CO2 [31].
Peritoneal macrophages were obtained as described previously and L. infantum amastigotes were obtained from spleens of infected hamsters by differential centrifugation. Peritoneal macrophages were seeded at 1 × 10^5 cells per well in Nunc™ 16-well slide chambers (Aldrich, St. Louis, MO, USA) for 24 h at 37 °C in a 5% CO2-humidified incubator. Amastigotes were added to macrophages at 10:1 ratio (amastigotes:macrophage) and incubated for 24 h. Non-internalized parasites were removed by washing twice with medium and the cells were then incubated with compounds in a range concentration of 100 to 0.78 μg/mL for 120 h at 37 °C in 5% CO2, using miltefosine as standard drug. At the end of the assay, the cells were fixed in methanol, stained with Giemsa and observed under a light microscope to determine the number of infected macrophages out of 400 cells.

[4] = test system: extracellular forms of the parasite; set-up: method as in PMID 10603400; settings: cited from earlier work
[5] = test system: L. infantum promastigotes; assay: Activity against L. infantum promastigotes (MTT, light microscopy); type: cell-based; settings: Leishmania infantum; 48 h, 24 °C, 100 to 0.78 μg/mL; NA: not active; read-out: IC50 CI95% L. infantum Promastigotes
Experimental: as §1
To determine the 50% inhibitory concentration (IC50) against L. infantum promastigotes, compounds 1–3, 1a–c, 2a–d, 3a, and 3b were previously dissolved in dimethyl sulphoxide (DMSO) and diluted with M-199 medium in 96-well microplates. Promastigotes were counted in a Neubauer hemocytometer and seeded at 1 × 10^6/well with a final volume of 150 μL. The tested compounds were incubated in a range concentration of 100 to 0.78 μg/mL for 48 h at 24 °C. The viability of promastigotes was verified by motility and morphology using light microscopy and by the colorimetric MTT assay. Briefly, 3-[4,5-dimethylthiazol-2-yl]-2,5-diphenyltetrazolium bromide (MTT, 5 mg/mL) was dissolved in phosphate-buffered saline (PBS), sterilized through 0.22 µm membranes and added, 20 µL/well, for 4 h at 24 °C. […]

[6] = test system: T. cruzi trypomastigotes (Y strain); set-up: method as in PMID 24340110; settings: CI95% not given; cited from earlier work
[7] = test system: L. infantum promastigotes; set-up: method as in PMID 24374794; settings: CI95% not given; cited from earlier work
[8] = test system: L. infantum intracellular amastigotes; set-up: method as in PMID 24374794; settings: CI95% not given; cited from earlier work
[9] = NCTC clone 929 cells, NCTC clone 929, 48 h, highest concentration 200 μg/mL, read-out: CC50 CI95% NCTC

Row | SMILES | NCTC Experimental (NCTC clone 929 cells) | CC50 at 48 h ([2]; CC50 CI95% NCTC) | L. infantum (Amastigotes) Experimental [3] | SI TRY: selectivity index trypomastigotes [1] | IC50 ([1]; 24 h) | SI AMA: selectivity index amastigotes [3] | also measured
1 | CC(CCCC(C)[C@@H]1CC[C@]2(C)C3=CCC4C(C)(C)C(=O)CC[C@]4(C)C3CC[C@@]12C)C(=O)O (stereo partly shown) [Compound 1c, 3-Oxotirucall-7-en-27-oic acid] | I | > 200 µg/mL | I |  |  |  | T. cruzi (Trypomastigotes) Experimental [1]: I
2 | C/C(=C\CCC(C)[C@@H]1CC[C@]2(C)C3=CCC4C(C)(C)C(=O)CC[C@]4(C)C3CC[C@@]12C)C(=O)O (stereo partly shown) [Compound 2, 3-Oxotirucalla-7,24E-dien-27-oic acid] |  |  |  | 6.1 | 15.8 µg/mL (≈ 34.6 µM) | 1.5 | CC50 CI95% NCTC (NCTC clone 929 cells; NCTC clone 929, 48 h, highest concentration 200 μg/mL): 96.48 (77.38–120.30) μg/mL; NCTC Experimental (NCTC clone 929 cells; cytotoxicity class): I; CC50 at 48 h [2, 9]: 96 µg/mL (≈ 211 µM); IC50 [3]: 64.9 µg/mL (≈ 143 µM)
3 | C/C(=C/CCC(C)[C@@H]1CC[C@]2(C)C3=CCC4C(C)(C)C(O)CC[C@]4(C)C3CC[C@@]12C)C(=O)O (stereo partly shown) [Compound 1a, 3ξ-Hydroxytirucalla-7,24Z-dien-27-oic acid] |  | 69.5 µg/mL (≈ 152 µM) | I | 3.4 | 20.2 µg/mL (≈ 44.2 µM) |  | 
4 | CC(=O)OC1CC[C@]2(C)C3CC[C@@]4(C)[C@H](C(C)CC/C=C(\C)C(=O)O)CC[C@]4(C)C3=CCC2C1(C)C (stereo partly shown) [Compound 2b, 3ξ-Acetoxytirucalla-7,24E-dien-27-oic acid] | I | 69.3 µg/mL (≈ 139 µM) | I | 1.1 | 58.4 µg/mL (≈ 117 µM) |  | 
5 | COC(=O)/C(C)=C/CCC(C)[C@@H]1CC[C@]2(C)C3=CCC4C(C)(C)C(=O)CC[C@]4(C)C3CC[C@@]12C (stereo partly shown) [Compound 2d, Methyl 3-oxotirucalla-7,24E-dien-27-oate] |  |  | I |  |  |  | T. cruzi (Trypomastigotes) Experimental [1]: I; NCTC Experimental (NCTC clone 929 cells; cytotoxicity class): I; CC50 at 48 h [2, 9]: > 200 µg/mL
6 | C/C(=C\CCC(C)[C@@H]1CC[C@]2(C)C3=CCC4C(C)(C)C(O)CC[C@]4(C)C3CC[C@@]12C)C(=O)O (stereo partly shown) [Compound 2a, 3ξ-Hydroxytirucalla-7,24E-dien-27-oic acid] | I | 95.5 µg/mL (≈ 209 µM) |  | 3.2 | 29.6 µg/mL (≈ 64.8 µM) | 1.0 | IC50 [3]: 97.6 µg/mL (≈ 214 µM)
7 | COC(=O)/C(C)=C\CCC(C)[C@@H]1CC[C@]2(C)C3=CCC4C(C)(C)[C@H](OC(C)=O)CC[C@]4(C)C3CC[C@@]12C (stereo partly drawn) [Compound 3b, Methyl 3α-acetoxytirucalla-7,24Z-dien-27-oate] | I | > 200 µg/mL | I |  |  |  | 
8 | CNC[C@H](O)[C@@H](O)[C@H](O)[C@H](O)CO.[O]=[Sb](=[O])[OH] [glucantime] |  |  |  |  |  |  | effectiveness against the extracellular forms of the parasite [4]: no effectiveness
9 | CC(=O)OC1CC[C@]2(C)C3CC[C@@]4(C)[C@H](C(C)CCCC(C)C(=O)O)CC[C@]4(C)C3=CCC2C1(C)C (stereo partly shown) [Compound 2c, 3ξ-Acetoxytirucall-7-en-27-oic acid] | I | 57.8 µg/mL (≈ 115 µM) | I | 1.2 | 49.2 µg/mL (≈ 98.2 µM) |  | 
10 | COC(=O)/C(C)=C\CCC(C)[C@@H]1CC[C@]2(C)C3=CCC4C(C)(C)[C@H](O)CC[C@]4(C)C3CC[C@@]12C (stereo partly drawn) [Compound 3a, Methyl 3α-hydroxytirucalla-7,24Z-dien-27-oate] | I | > 200 µg/mL | I |  |  |  | 
11 | C/C(=C/CCC(C)[C@@H]1CC[C@]2(C)C3=CCC4C(C)(C)[C@H](O)CC[C@]4(C)C3CC[C@@]12C)C(=O)O (stereo partly drawn) [Compound 3, 3α-Hydroxytirucalla-7,24Z-dien-27-oic acid] |  | 69 µg/mL (≈ 151 µM) |  | 4.3 | 16.3 µg/mL (≈ 35.6 µM) | 2.4 | IC50 [5]: 57.8 µg/mL (≈ 127 µM); CC50 CI95% NCTC (NCTC clone 929 cells; mouse, 48 h): 69.50 (64.01–75.45) μg/mL; IC50 [3]: 28.9 µg/mL (≈ 63.4 µM)
12 | C/C(=C/CCC(C)[C@@H]1CC[C@]2(C)C3=CCC4C(C)(C)C(=O)CC[C@]4(C)C3CC[C@@]12C)C(=O)O (stereo partly shown) [Compound 1, 3-Oxotirucalla-7,24Z-dien-27-oic acid] |  |  |  |  |  | >3 | IC50 against T. cruzi trypomastigotes ([1]; 24 h): lack of activity; T. cruzi (Trypomastigotes) Experimental [1]: I; NCTC Experimental (NCTC clone 929 cells; cytotoxicity class): I; CC50 at 48 h [2, 9]: > 200 µg/mL; IC50 [3]: 66.5 µg/mL (≈ 146 µM)
13 | CC(CCCC(C)[C@@H]1CC[C@]2(C)C3=CCC4C(C)(C)C(O)CC[C@]4(C)C3CC[C@@]12C)C(=O)O (stereo partly shown) [Compound 1b, 3ξ-Hydroxytirucall-7-en-27-oic acid] |  | 76.4 µg/mL (≈ 167 µM) | I | 4.3 | 17.6 µg/mL (≈ 38.5 µM) |  | 
14 | O=C(Cn1ccnc1[N+](=O)[O-])NCc1ccccc1 [benznidazole] |  |  |  |  |  |  | IC50 T. cruzi Trypomastigotes (standard drug) [6]: 115 µg/mL (≈ 441 µM)
15 | CCCCCCCCCCCCCCCCOP(=O)([O-])OCC[N+](C)(C)C [miltefosine, reference compound] |  |  |  |  |  | 7 | IC50 L. infantum Promastigotes (standard drug) [7]: 6.87 µg/mL (≈ 16.9 µM); IC50 L. infantum Amastigotes (standard drug) [8]: 7.25 µg/mL (≈ 17.8 µM); CC50 at 48 h [2, 9]: 49.7 µg/mL (≈ 122 µM)
